Source: patent US20090203577A1 (EXELIXIS, INC., priority 2005, published 2009)
Converted amounts (≈) assume the structure as drawn.

What was measured:
[1] = molecular target: T1, human farnesoid X receptor (Homo sapiens, UniProt Q96RI1); test: FXR in vitro assays (farnesoid X receptor/ECREx7 co-transfection assay, TR-FRET assay), Table I; assay type: cell-based; conditions: for EC50: agonist activity, one or more of the in vitro assays, read-out: EC50; for Emax: read-out: % Efficacy
T1 construct: CMX-farnesoid X receptor (full length human farnesoid X receptor); expressed in transfected cells; host or cells: CV-1 African Green Monkey Kidney cells
T1 sequence (Q96RI1 1-472 isoform Q96RI1-2): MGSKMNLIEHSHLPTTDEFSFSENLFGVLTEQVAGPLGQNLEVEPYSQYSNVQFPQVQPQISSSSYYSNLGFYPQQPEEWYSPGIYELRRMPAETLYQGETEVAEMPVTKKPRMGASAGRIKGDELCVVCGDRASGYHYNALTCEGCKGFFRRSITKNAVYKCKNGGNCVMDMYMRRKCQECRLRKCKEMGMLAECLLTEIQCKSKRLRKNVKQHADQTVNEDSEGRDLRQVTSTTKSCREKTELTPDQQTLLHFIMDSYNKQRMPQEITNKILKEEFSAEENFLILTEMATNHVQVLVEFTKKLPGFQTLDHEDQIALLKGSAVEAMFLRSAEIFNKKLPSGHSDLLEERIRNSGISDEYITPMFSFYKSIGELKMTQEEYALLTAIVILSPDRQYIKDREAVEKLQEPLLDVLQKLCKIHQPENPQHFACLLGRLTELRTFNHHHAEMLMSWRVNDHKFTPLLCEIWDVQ
T1 sequence (P19793 1-462 partner): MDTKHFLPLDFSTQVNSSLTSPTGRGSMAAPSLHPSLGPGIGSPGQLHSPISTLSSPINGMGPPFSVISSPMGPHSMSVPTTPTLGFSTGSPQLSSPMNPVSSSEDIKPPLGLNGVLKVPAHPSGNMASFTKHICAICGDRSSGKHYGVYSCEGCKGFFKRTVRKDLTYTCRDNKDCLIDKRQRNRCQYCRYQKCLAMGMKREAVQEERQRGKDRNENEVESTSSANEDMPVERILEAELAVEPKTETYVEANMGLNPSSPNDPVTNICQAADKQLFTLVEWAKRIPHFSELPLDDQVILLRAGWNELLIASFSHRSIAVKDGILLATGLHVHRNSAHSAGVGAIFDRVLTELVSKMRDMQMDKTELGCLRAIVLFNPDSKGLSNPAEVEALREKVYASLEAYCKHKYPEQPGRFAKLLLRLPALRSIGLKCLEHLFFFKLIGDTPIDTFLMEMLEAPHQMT
Method in brief: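 CV-1 monkey kidney cells transfected for an FXR/ECREx7 luciferase co-transfection reporter; luciferase read 18-20 h later in lysates. 8-point dose-response at ½-log spacing, 4 wells per point; EC50/IC50 from four-parameter Hill fit, averaged over at least 3 independent experiments.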

Kinetic solubility assay = test: Kinetic solubility assay
Experimental: The kinetic solubility of test compounds in buffer was evaluated using a 96 well filtration plate format. A 500 μM assay solution in PBS, pH7.4 (or other assay buffer, as needed) was generated form a DMSO stock solution (up to 10 mM). Samples were transferred to a 96 Millipore MultiScreen HTS 96-well Filter plate (Cat# MSSLBPC10) mixed by shaking for 1.5 hours and processed by filtration prior to quantitation by HPLC-UV. Amiodarone and testosterone were used as reference controls.

[2] = pH 7.4, aqueous buffer, kinetic from dmso stock

| Compound | % Efficacy [1] | Kinetic Solubility μM (Kinetic solubility assay; 500 μM assay solution in PBS, pH7.4 from DMSO stock, filtration, HPLC-UV) | EC50 [1] [nM] | Emax [1] [%] | solubility kinetic at 1.5 h (Kinetic solubility assay; [2]) [µM] | solubility kinetic (Kinetic solubility assay; [2]) [µM] |
| --- | --- | --- | --- | --- | --- | --- |
| 1-methyethyl 1,1-dimethyl- 3-({4-[4-(trifluoromethyl)- 1H-pyrazol-1- yl]phenyl}carbonyl)-1,2,3,6- tetrahydroazepino[4,5- b]indole-5-carboxylate [Example 158] | A (key: A=>100%; B=80-100%; C=60-80%; D=40-60%; E=<40%) | C (C=0.1-1.0 μM) |  |  |  |  |
| CC(C)OC(=O)C1=CN(C(=O)C2CCN(C)CC2)CC(C)(C)c2c1[nH]c1ccccc21 [Example 6, 1-methylethyl 1,1-dimethyl-3-[(1-methylpiperidin-4-yl)carbonyl]-1,2,3,6-tetrahydroazepino[4,5-b]indole-5-carboxylate] |  |  | 1000 to 10000 | > 100 | 0.1 to 1 (≈ 0.0424 to 0.424 µg/mL) |  |
| CC(C)OC(=O)C1=CN(C(=O)N2CCN(C)CC2)CC(C)(C)c2c1[nH]c1ccccc21 [Example 16] |  |  | 100 to 1000 | > 100 | 0.1 to 1 (≈ 0.0425 to 0.425 µg/mL) |  |
| CCC(=O)N1C=C(C(=O)OC(C)C)c2[nH]c3ccccc3c2C(C)(C)C1 [Example 19] |  |  | 100 to 1000 | > 100 | > 10 |  |
| CCCNC(=O)N1C=C(C(=O)OC(C)C)c2[nH]c3ccccc3c2C(C)(C)C1 [Example 23, 1-methylethyl 1,1-dimethyl-3-[(propylamino)carbonyl]-1,2,3,6-tetrahydroazepino[4,5-b]indole-5-carboxylate] |  |  | 100 to 1000 | > 100 | 1 to 10 (≈ 0.383 to 3.83 µg/mL) |  |
| CCN1CCN(C(=O)N2C=C(C(=O)OC(C)C)c3[nH]c4ccccc4c3C(C)(C)C2)CC1 [Example 25, 1-methylethyl 3-[(4-ethylpiperazin-1-yl)carbonyl]-1,1-dimethyl-1,2,3,6-tetrahydroazepino[4,5-b]indole-5-carboxylate] |  |  | 10 to 100 | > 100 | > 10 |  |
| CC(C)OC(=O)C1=CN(C(=O)N2CCNCC2)CC(C)(C)c2c1[nH]c1ccccc21 [Example 26, 1-methylethyl 1,1-dimethyl-3-(piperazin-1-ylcarbonyl)-1,2,3,6-tetrahydroazepino [4,5-b]indole-5-carboxylate] |  |  | 1000 to 10000 | > 100 | > 10 |  |
| CC(C)OC(=O)C1=CN(C(=O)N2CCC(N3CCCC3)CC2)CC(C)(C)c2c1[nH]c1ccccc21 [Example 28, 1-methylethyl 1,1-dimethyl-3[(4-pyrrolidin-1-ylpiperidin-1-yl)carbonyl]-1,2,3,6-tetrahydroazepino[4,5-b]indole-5-carboxylate] |  |  | 1000 to 10000 | 80 to 100 | > 10 |  |
| CC(C)OC(=O)C1=CN(C(=O)N2CCN(CC3CCN(C)CC3)CC2)CC(C)(C)c2c1[nH]c1ccccc21 [Example 29, 1-methylethyl 1,1-dimethyl-3-({4-[(1-methylpiperidin-4-yl)methyl]piperazin-1-yl}carbonyl)-1,2,3,6-tetrahydroazepino [4,5-b]indole-5-carboxylate] |  |  | 1000 to 10000 | 40 to 60 | > 10 |  |
| CC(C)OC(=O)C1=CN(C(=O)N2CCN(C(C)C)CC2)CC(C)(C)c2c1[nH]c1ccccc21 [Example 30, 1-methylethyl 1,1-dimethyl-3-{[4-(1-methylethyl)piperazin-1-yl)carbonyl}-1,2,3,6-tetrahydroazepino[4,5-b]indole-5-carboxylate] |  |  | 100 to 1000 | > 100 | > 10 |  |
| CC(C)OC(=O)C1=CN(C(=O)c2cccc(OCCN3CCCCC3)c2)CC(C)(C)c2c1[nH]c1ccccc21 [Example 159, 1-methylethyl 1,1-dimethyl-3-({3-[(2-piperidin-1-ylethyl)oxy]phenyl}carbonyl)-1,2,3,6-tetrahydroazepino[4,5-b]indole-5-carboxylate] |  |  |  |  | 1 to 10 (≈ 0.53 to 5.3 µg/mL) |  |
| CC(C)OC(=O)C1=CN(C(=O)c2cccc(CN3CCN(C(=O)C(C)C)CC3)c2)CC(C)(C)c2c1[nH]c1ccccc21 [Example 174, 1-methylethyl 1,1-dimethyl-3-[(3-{[4-(2-methylpropanoyl)piperazin-1-yl]methyl}phenyl)carbonyl]-1,2,3,6-tetrahydroazepino[4,5-b]indole-5-carboxylate] |  |  | 100 to 1000 | > 100 |  |  |
| CC(C)OC(=O)C1=CN(C(=O)c2cccc(CN3CCN(C(=O)c4ccccc4)CC3)c2)CC(C)(C)c2c1[nH]c1ccccc21 [Example 175, 1-methylethyl 1,1-dimethyl-3-[(3-{[4-(phenylcarbonyl)piperazin-1-yl]methyl}phenyl)carbonyl]-1,2,3,6-tetrahydroazepino[4,5-b]indole-5-carboxylate] |  |  | 100 to 1000 | > 100 |  |  |
| CC(C)OC(=O)C1=CN(C(=O)c2cccc(CN3CCCCCCC3)c2)CC(C)(C)c2c1[nH]c1ccccc21 [Example 176, 1-methylethyl 3-{[3-(azocan-1-ylmethyl)phenyl]carbonyl}-1,1-dimethyl-1,2,3,6-tetrahydroazepino[4,5-b]indole-5-carboxylate] |  |  | 100 to 1000 | > 100 |  |  |
| CC(C)OC(=O)C1=CN(C(=O)c2cccc(CN3CCNCC3)c2)CC(C)(C)c2c1[nH]c1ccccc21 [Example 178, 1-methylethyl 1,1-dimethyl-3-{[3-(piperazin-1-ylmethyl)phenyl]carbonyl}-1,2,3,6-tetrahydroazepino[4,5-b]indole-5-carboxylate] |  |  | > 10000 |  |  |  |
| CC(C)OC(=O)C1=CN(C(=O)c2cc(F)c(F)c(OCCN3CCOCC3)c2)CC(C)(C)c2c1[nH]c1ccccc21 [Example 179, 1-methylethyl 3-({3,4-difluoro-5-[(2-morpholin-4-ylethyl)oxy]phenyl}carbonyl)-1,1-dimethyl-1,2,3,6-tetrahydroazepino[4,5-b]indole-5-carboxylate] |  |  | 10 to 100 | > 100 |  |  |
| CC(C)OC(=O)C1=CN(C(=O)c2cc(F)c(F)c(OCCN3CCCCC3)c2)CC(C)(C)c2c1[nH]c1ccccc21 [Example 180, 1-methylethyl 3-({3,4-difluoro-5-[(2-piperidin-1-ylethyl)oxy]phenyl}carbonyl)-1,1-dimethyl-1,2,3,6-tetrahydroazepino[4,5-b]indole-5-carboxylate] |  |  | 10 to 100 | > 100 |  |  |
| CC(C)OC(=O)C1=CN(C(=O)c2ccc(OCCN3CCOCC3)cc2)CC(C)(C)c2c1[nH]c1ccccc21 [Example 181, 1-methylethyl 1,1-dimethyl-3-({4-[(2-morpholin-4-ylethyl)oxy]phenyl}carbonyl)-1,2,3,6-tetrahydroazepino[4,5-b]indole-5-carboxylate] |  |  |  |  | 1 to 10 (≈ 0.532 to 5.32 µg/mL) |  |
| CC(C)OC(=O)C1=CN(C(=O)c2cccc(CN3CCN(C(=O)Nc4ccccc4)CC3)c2)CC(C)(C)c2c1[nH]c1ccccc21 [Example 184] |  |  | 10 to 100 | > 100 |  |  |
| CCN(CC)CCCOc1cccc(C(=O)N2C=C(C(=O)OC(C)C)c3[nH]c4ccccc4c3C(C)(C)C2)c1 [Example 188, 1-methylethyl 3-[(3-{[3-(diethylamino)propyl]oxy}phenyl)carbonyl]-1,1-dimethyl-1,2,3,6-tetrahydroazepino[4,5-b]indole-5-carboxylate] |  |  | 1000 to 10000 | > 100 |  |  |
| CC(COC(=O)c1ccc(F)c(F)c1)OC(=O)C1=CN(C(=O)c2ccc(F)c(F)c2)CC(C)(C)c2c1[nH]c1ccccc21 (stereo not drawn) [Example 194, 2-{[(3,4-difluorophenyl)carbonyl]oxy}-1-methylethyl 3-[(3,4-difluorophenyl)carbonyl]-1,1-dimethyl-1,2,3,6-tetrahydroazepino[4,5-b]indole-5-carboxylate] |  |  | 10 to 100 | > 100 |  |  |
| CC1(C)CN(C(=O)c2ccc(F)c(F)c2)C=C(C(=O)OCCOCc2ccccc2)c2[nH]c3ccccc3c21 [Example 195, 2-[(phenylmethyl)oxy]ethyl 3-[(3,4-difluorophenyl)carbonyl]-1,1-dimethyl-1,2,3,6-tetrahydroazepino[4,5-b]indole-5-carboxylate] |  |  | 100 to 1000 | > 100 |  |  |
| C[C@]12CC[C@H]3[C@@H](CCC4=CC(=O)CC[C@@]43C)[C@@H]1CC[C@@H]2O [testosterone, reference compound] |  |  |  |  |  | ~330 (≈ 95.2 µg/mL) |
